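96-well plates; 48 h exposure; 5 concentrations. Endpoints by linear interpolation between flanking doses. Not reached: highest tested concentration assigned. Here, GI50 denotes the concentration required for 50% inhibition of growth. TGI denotes the concentration required for complete inhibition of growth.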
Tests used:
Test in all cases: NCI tumour cell line growth inhibition, 48 h
[1] = tested on: ACHN renal
[2] = tested on: SW-620 colon
[3] = tested on: HCT-116 colon
[4] = tested on: EKVX NSCLC
[5] = tested on: IGROV1 ovarian
[6] = tested on: CAKI-1 renal
[7] = tested on: NCI-H23 lung
[8] = tested on: MALME-3M melanoma
[9] = tested on: CCRF-CEM leukemia
[10] = tested on: HOP-92 NSCLC
[11] = tested on: HL-60(TB) leukemia
[12] = tested on: NCI-H522 lung
[13] = tested on: RPMI-8226 leukemia
[14] = tested on: SK-OV-3 ovarian
[15] = tested on: SF-539 CNS
[16] = tested on: SNB-75 CNS
[17] = tested on: HT29 colon
[18] = tested on: SNB-19 CNS
[19] = tested on: A549 NSCLC
[20] = tested on: UACC-257 melanoma
[21] = tested on: SN12C renal
[22] = tested on: COLO 205 colon
[23] = tested on: LOX IMVI melanoma
[24] = tested on: HCT-15 colon
[25] = tested on: SK-MEL-28 melanoma
[26] = tested on: MOLT-4 leukemia
[27] = tested on: PC-3 prostate
[28] = tested on: BT-549 breast
[29] = tested on: SF-268 CNS
[30] = tested on: SK-MEL-2 melanoma
[31] = tested on: UO-31 renal
[32] = tested on: UACC-62 melanoma
[33] = tested on: HOP-62 NSCLC
[34] = tested on: NCI/ADR-RES ovarian
[35] = tested on: NCI-H226 lung
[36] = tested on: HS 578T breast
[37] = tested on: NCI-H460 lung
[38] = tested on: TK-10 renal
[39] = tested on: KM12 colon
[40] = tested on: M14 melanoma
[41] = tested on: T-47D breast
[42] = tested on: MCF7 breast
[43] = tested on: HCC-2998 colon
[44] = tested on: OVCAR-8 ovarian
[45] = tested on: U251 CNS
[46] = tested on: SK-MEL-5 melanoma
[47] = tested on: OVCAR-3 ovarian
[48] = tested on: MDA-MB-231 breast
[49] = tested on: OVCAR-4 ovarian
[50] = tested on: DU-145 prostate
[51] = tested on: SR leukemia
[52] = tested on: OVCAR-5 ovarian
[53] = tested on: SF-295 CNS
[54] = tested on: MDA-MB-435
[55] = tested on: A498 renal
[56] = tested on: 786-0 renal

`CCCCCCCCCCCCOC1C(CNC(=O)C2OC3OC(C)(C)OC3C2NC(=O)Nc2ccc(CC(=O)OC)cc2)OC2OC(C)(C)OC21` (stereo not given) was tested, and the GI50 [1] was > 100 µM, the TGI [1] was > 100 µM and the GI50 [2] was > 100 µM. For the same compound, the TGI [2] was > 100 µM, the GI50 [3] was 12.5 µM and the TGI [3] was > 100 µM. The GI50 [4] was > 100 µM, the TGI [4] was > 100 µM and the GI50 [5] was > 90.9 µM. For the same compound, the TGI [5] was > 100 µM, the GI50 [6] was 47 µM and the TGI [6] was > 100 µM. For the same compound, the GI50 [7] was > 100 µM, the TGI [7] was > 100 µM and the GI50 [8] was > 78.1 µM. The TGI [8] was > 100 µM, the GI50 [9] was > 19.6 µM and the TGI [9] was > 100 µM. The GI50 [10] was > 100 µM, the TGI [10] was > 100 µM and the TGI [11] was > 47.9 µM. The GI50 [12] was > 100 µM, the TGI [12] was > 100 µM and the GI50 [13] was > 100 µM. For the same compound, the TGI [13] was > 100 µM, the GI50 [14] was > 100 µM and the TGI [14] was > 100 µM. The GI50 [15] was > 100 µM, the TGI [15] was > 100 µM and the GI50 [16] was > 100 µM. For the same compound, the TGI [16] was > 100 µM, the GI50 [17] was > 100 µM and the TGI [17] was > 100 µM. The GI50 [18] was > 100 µM, the TGI [18] was > 100 µM and the GI50 [19] was > 100 µM. For the same compound, the TGI [19] was > 100 µM, the GI50 [20] was > 100 µM and the TGI [20] was > 100 µM. The GI50 [21] was > 100 µM, the TGI [21] was > 100 µM and the GI50 [22] was > 72.5 µM. The TGI [22] was > 100 µM, the GI50 [23] was 47.7 µM and the TGI [23] was > 100 µM. The GI50 [24] was > 100 µM, the TGI [24] was > 100 µM and the GI50 [25] was > 100 µM. For the same compound, the TGI [25] was > 100 µM, the TGI [26] was > 100 µM and the GI50 [27] was > 100 µM. For the same compound, the TGI [27] was > 100 µM, the GI50 [28] was > 100 µM and the TGI [28] was > 100 µM. For the same compound, the GI50 [29] was > 100 µM, the TGI [29] was > 100 µM and the GI50 [30] was > 100 µM. The TGI [30] was > 100 µM, the GI50 [31] was > 100 µM and the TGI [31] was > 100 µM. For the same compound, the GI50 [32] was > 100 µM, the TGI [32] was > 100 µM and the GI50 [33] was > 50.2 µM. The TGI [33] was > 100 µM, the GI50 [34] was > 100 µM and the TGI [34] was > 100 µM. The GI50 [35] was > 100 µM, the TGI [35] was > 100 µM and the GI50 [36] was > 100 µM. For the same compound, the TGI [36] was > 100 µM, the GI50 [37] was > 100 µM and the TGI [37] was > 100 µM. For the same compound, the GI50 [38] was > 100 µM, the TGI [38] was > 100 µM and the GI50 [39] was > 100 µM. For the same compound, the TGI [39] was > 100 µM, the GI50 [40] was 22.7 µM and the TGI [40] was > 100 µM. For the same compound, the GI50 [41] was > 100 µM, the TGI [41] was > 100 µM and the GI50 [42] was > 100 µM. For the same compound, the TGI [42] was > 100 µM, the GI50 [43] was > 100 µM and the TGI [43] was > 100 µM. For the same compound, the GI50 [44] was > 100 µM, the TGI [44] was > 100 µM and the GI50 [45] was 18.3 µM. For the same compound, the TGI [45] was > 100 µM, the GI50 [46] was > 100 µM and the TGI [46] was > 100 µM. For the same compound, the GI50 [47] was > 100 µM, the TGI [47] was > 100 µM and the GI50 [48] was 8.43 µM. For the same compound, the TGI [48] was > 82 µM, the GI50 [49] was > 100 µM and the TGI [49] was > 100 µM. The GI50 [50] was > 77 µM, the TGI [50] was > 100 µM and the GI50 [51] was > 100 µM. For the same compound, the TGI [51] was > 100 µM, the GI50 [52] was > 100 µM and the TGI [52] was > 100 µM. The GI50 [53] was > 34.8 µM, the TGI [53] was > 49.5 µM and the GI50 [54] was > 100 µM. The TGI [54] was > 100 µM, the GI50 [55] was > 100 µM and the TGI [55] was > 100 µM. For the same compound, the GI50 [56] was > 100 µM and the TGI [56] was > 100 µM.

Reference: PubChem BioAssay (NCI)
